The target in assay [1] is T1, Glucocorticoid receptor (Homo sapiens, UniProt P04150).
T1 sequence (P04150 whole entry): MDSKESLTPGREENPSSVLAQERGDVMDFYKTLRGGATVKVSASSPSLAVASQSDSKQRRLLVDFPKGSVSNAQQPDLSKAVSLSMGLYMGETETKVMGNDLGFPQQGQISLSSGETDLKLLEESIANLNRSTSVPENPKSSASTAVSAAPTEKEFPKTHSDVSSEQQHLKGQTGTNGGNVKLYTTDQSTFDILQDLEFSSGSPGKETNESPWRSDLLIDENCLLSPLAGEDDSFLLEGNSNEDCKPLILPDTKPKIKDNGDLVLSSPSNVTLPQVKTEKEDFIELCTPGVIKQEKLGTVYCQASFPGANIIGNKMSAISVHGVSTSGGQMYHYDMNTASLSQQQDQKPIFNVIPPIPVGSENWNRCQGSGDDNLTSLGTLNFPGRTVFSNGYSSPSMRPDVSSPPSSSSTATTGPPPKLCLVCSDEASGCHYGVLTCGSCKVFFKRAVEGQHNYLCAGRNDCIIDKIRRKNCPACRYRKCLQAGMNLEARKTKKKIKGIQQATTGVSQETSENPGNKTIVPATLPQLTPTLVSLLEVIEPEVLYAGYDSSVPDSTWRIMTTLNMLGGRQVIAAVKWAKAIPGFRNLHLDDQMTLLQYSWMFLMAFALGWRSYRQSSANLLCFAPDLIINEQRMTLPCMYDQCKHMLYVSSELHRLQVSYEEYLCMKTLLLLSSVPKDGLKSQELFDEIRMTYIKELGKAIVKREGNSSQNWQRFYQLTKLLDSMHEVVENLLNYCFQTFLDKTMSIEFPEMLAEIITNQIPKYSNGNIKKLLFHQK

Assay [2] has as its target T2, Glucocorticoid receptor (Rattus norvegicus, UniProt P06536).
T2 sequence (P06536 whole entry): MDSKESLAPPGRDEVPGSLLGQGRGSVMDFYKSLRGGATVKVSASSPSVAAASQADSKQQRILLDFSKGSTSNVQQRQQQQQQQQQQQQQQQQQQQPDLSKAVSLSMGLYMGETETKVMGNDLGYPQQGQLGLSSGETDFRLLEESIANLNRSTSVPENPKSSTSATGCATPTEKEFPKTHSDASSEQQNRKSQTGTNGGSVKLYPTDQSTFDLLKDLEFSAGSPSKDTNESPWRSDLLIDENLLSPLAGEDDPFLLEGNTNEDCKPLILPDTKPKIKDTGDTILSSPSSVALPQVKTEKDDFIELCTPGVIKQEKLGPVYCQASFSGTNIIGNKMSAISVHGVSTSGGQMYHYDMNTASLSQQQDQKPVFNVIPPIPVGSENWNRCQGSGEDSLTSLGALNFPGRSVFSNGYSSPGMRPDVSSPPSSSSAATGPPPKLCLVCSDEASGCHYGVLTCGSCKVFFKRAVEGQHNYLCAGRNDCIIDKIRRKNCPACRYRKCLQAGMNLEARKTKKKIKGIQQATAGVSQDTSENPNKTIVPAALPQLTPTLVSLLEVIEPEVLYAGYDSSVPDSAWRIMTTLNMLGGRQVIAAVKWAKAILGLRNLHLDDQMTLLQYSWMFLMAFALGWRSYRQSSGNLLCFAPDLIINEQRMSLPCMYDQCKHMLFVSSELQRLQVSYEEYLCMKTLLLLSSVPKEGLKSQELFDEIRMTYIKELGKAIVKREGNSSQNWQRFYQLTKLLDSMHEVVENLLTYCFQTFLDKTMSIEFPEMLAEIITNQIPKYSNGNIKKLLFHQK
The class given is functional, cell-based. Particulars: hepatocyte; call rule not given here.

Assay [3] has as its target T1, Glucocorticoid receptor. Type of assay: functional.
Description: Inhibition of glucocorticoid receptor Dexamethasone response in reporter gene assay
Assay [4] deals with T3, Hepatic sodium/bile acid cotransporter (Rattus norvegicus, UniProt P26435).
T3 sequence (P26435 whole entry): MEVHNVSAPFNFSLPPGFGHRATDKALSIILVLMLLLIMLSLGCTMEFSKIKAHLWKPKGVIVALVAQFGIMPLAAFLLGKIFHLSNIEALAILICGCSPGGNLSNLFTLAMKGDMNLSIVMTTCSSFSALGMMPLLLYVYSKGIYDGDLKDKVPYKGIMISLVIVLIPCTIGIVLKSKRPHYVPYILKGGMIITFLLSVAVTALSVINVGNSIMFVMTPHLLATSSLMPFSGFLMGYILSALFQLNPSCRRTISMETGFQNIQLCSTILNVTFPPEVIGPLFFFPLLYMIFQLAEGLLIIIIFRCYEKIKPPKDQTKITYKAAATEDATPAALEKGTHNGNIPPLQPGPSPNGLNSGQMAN

In general, IC50 refers to the point on the concentration scale where inhibition reaches its midpoint. For `Cc1c(NS(C)(=O)=O)cccc1N(Cc1ccccc1)Cc1ccc(Oc2ccc(CCC(=O)NCCO[C@@H]3CC[C@]4(C)[C@H](C3)C[C@H](O)[C@@H]3[C@@H]4C[C@@H](O)[C@]4(C)[C@H]3CC[C@H]4[C@@H](C)CCC(=O)O)cc2)cc1`, the IC50 is 17 nM on Glucocorticoid receptor [1], “Not Active” against Glucocorticoid receptor [2], 450 nM at Glucocorticoid receptor [3] and 4 nM in assay [4].

Consider `Cc1c(NS(C)(=O)=O)cccc1N(Cc1ccccc1)Cc1ccc(Oc2cccc(OCC(=O)NCCO[C@H]3CC[C@@]4(C)[C@@H](C3)C[C@@H](O)[C@@H]3[C@@H]4C[C@H](O)[C@]4(C)[C@@H]([C@H](C)CCC(=O)O)CC[C@@H]34)c2)cc1`, for which the half-inhibitory concentration (IC50) worked out at 57 nM at Glucocorticoid receptor [1] and 590 nM against Glucocorticoid receptor [3].

On to `Cc1c(NS(C)(=O)=O)cccc1N(Cc1ccc(CCCC(=O)NCCO[C@@H]2CC[C@]3(C)[C@H](C2)C[C@H](O)[C@@H]2[C@@H]3C[C@@H](O)[C@]3(C)[C@H]2CC[C@H]3[C@@H](C)CCC(=O)O)cc1)Cc1ccc(Oc2ccccc2)cc1`, for which 260 nM corresponded to half-maximal inhibition against Glucocorticoid receptor [1] (IC50).

`Cc1c(NS(C)(=O)=O)cccc1N(Cc1ccc(Oc2ccc(CCC(=O)NCCO[C@@H]3CC[C@]4(C)[C@H](C3)C[C@H](O)[C@@H]3[C@@H]4C[C@@H](O)[C@]4(C)[C@H]3CC[C@H]4[C@@H](C)CCC(=O)O)cc2)cc1)Cc1ccc(F)cc1F` had an IC50 on Glucocorticoid receptor [1] of 270 nM.

For `Cc1c(NS(C)(=O)=O)cccc1N(Cc1ccccc1)Cc1ccc(Oc2cccc(CCCC(=O)NCCO[C@@H]3CC[C@]4(C)[C@H](C3)C[C@H](O)[C@@H]3[C@@H]4C[C@@H](O)[C@]4(C)[C@H]3CC[C@H]4[C@@H](C)CCC(=O)O)c2)cc1`, the IC50 against Glucocorticoid receptor [1] was found to be 62 nM; at Glucocorticoid receptor [3], 390 nM.

Take `Cc1c(NS(C)(=O)=O)cccc1N(Cc1ccccc1)Cc1ccc(CCC(=O)NCCO[C@H]2CC[C@@]3(C)[C@@H](C2)C[C@@H](O)[C@@H]2[C@@H]3C[C@H](O)[C@]3(C)[C@@H]([C@H](C)CCC(=O)O)CC[C@@H]23)cc1`: the IC50 against Glucocorticoid receptor [1] worked out at 560 nM; against Glucocorticoid receptor [3], 310 nM.

Compound `Cc1c(NS(C)(=O)=O)cccc1N(Cc1ccccc1)Cc1ccc(Oc2ccc(CCCC(=O)NCCO[C@H]3CC[C@@]4(C)[C@@H](C3)C[C@@H](O)[C@@H]3[C@@H]4C[C@H](O)[C@]4(C)[C@@H]([C@H](C)CCC(=O)O)CC[C@@H]34)cc2)cc1` returned an IC50 against Glucocorticoid receptor [1] of 50 nM.

`Cc1c(NS(C)(=O)=O)cccc1N(Cc1ccc(Oc2ccccc2)cc1)Cc1cccc(CCCC(=O)NCCO[C@H]2CC[C@@]3(C)[C@@H](C2)C[C@@H](O)[C@@H]2[C@@H]3C[C@H](O)[C@]3(C)[C@@H]([C@H](C)CCC(=O)O)CC[C@@H]23)c1`: on Glucocorticoid receptor [1], the IC50 is 93 nM.
